Measurements from patent US20190040004A1, “NEW COMPOUNDS FOR THE TREATMENT AND/OR PREVENTION OF PARASITIC DISEASES AND METHOD OF PRODUCTION OF THEREOF” (INSTITUT DE RECHERCHE POUR LE DEVELOPPEMENT (I.R.D.), priority 2013, published 2019).
Where two headings read alike, the source gives them in different places.

Key:
[1] = system: T1, HDAC activity from HELA nuclear extract; assay: Fluorimetric HDAC assay, HeLa nuclear extract; assay type: biochemical, human
T1 construct: HELA Nuclear extracts IC50; other: HeLa nuclear extract, fluorimetric HDAC kit; […]
Procedure: (§1) HDAC inhibitory activity was determined by a fluorimetric HDAC assay kit (Active-motif, Belgium), according to manufacturer's instructions. […] Fluorogenic substrate (10 μL) was added, reaction was allowed to proceed for 30 min at room temperature, then stopped by the addition of a developer containing Tichostatin A.

[2] = system: HFF cells; assay: MTT cytotoxicity on HFF host cells; assay type: cell-based
Procedure: (§2) Antiparasitic activity of a compound is represented by ICo50, which is calculated with Prism software (Prism4 for MacOSX Version 5.0b, December 2008). The cytoxicity of a compound against the host cells of L. infantum and T. gondii, such as THP-1 or HFF cells, was determined with a MTT assay, according to previously described protocol (Sereno et al., Antimicrob Agents Chemother. 2001, 45(4):1168-73). THP-1 is derived from the peripheral blood ofa human with acute monocytic leukemia.

[3] = system: THP-1 cells; assay: MTT cytotoxicity on THP-1 host cells; assay type: cell-based; details: for THP-1 LD50: human
Procedure: as §2

[4] = system: T. gondii (GFP expressing parasites) in HFF; assay: T. gondii proliferation in human foreskin fibroblasts; assay type: cell-based, Toxoplasma gondii; details: for IC50: 24 h
Procedure: To assess the drug activity on toxoplasma proliferation, human foreskin fibroblasts (HFF) were infected with GFP expressing parasites for 30 mns (Striepen et al., Mol Biochem Parasitol. 1998, 92(2):325-38). Cells were then washed and drugs added at various concentrations ranging from 0.1 to 10 uM. After 24 h, cells were washed and fixed (PBS-formaldehyde 2%) and nucleus stained with Hoechst 33258 (2 μg/ml). The number of infected cells i.e cells harbouring a parasitophorous vacuole and the number of parasites per vacuole were determined using an Olympus ScanR microscope (Olympus).
as §2

[5] = system: Leishmania infantum luciferase expressing strain (MHOM/MA/ITMAP269); assay: microbe, parasite or virus in culture; assay type: cell-based; details: for IC50: Leishmania infantum, read-out: L. infantum IC50
From the text: THP-1 is derived from the peripheral blood ofa human with acute monocytic leukemia.

[6] = system: HDAC activity from HELA nuclear extract; assay: Fluorimetric HDAC assay, HeLa nuclear extract; assay type: biochemical, human; details: read-out: IC50 (better HDAC inhibitor among 9 tested compounds)
Procedure: as §1

[7] = HeLa nuclear extract, fluorimetric HDAC kit, read-out: HELA Nuclear extracts IC50
[8] = Toxoplasma gondii, Fibroblast, HFF infected, read-out: T. gondi IC50
[9] = Toxoplasma gondii, Fibroblast, read-out: T. gondi IC50, HFF infected, 24 h

SMILES	IC50 [1, 7] [µM]	IS Selectivity index LD50 (HFF)/IC50 T. gondii [2]	HFF LD50 ([2]; human) [µM]	IS Selectivity index LD50 (THP-1)/IC50 T. gondii [3]	THP-1 LD50 [3]	IC50 [4, 8] [µM]	IC50 [5] [µM]	IC50 ([1]; text summary of Table 1, less active compounds, read-out: HDAC inhibitory activity against HeLa cell nuclear extract) [µM]	IC50 [4, 9] [µM]	anti-leishmanial activity, in words [5]	IC50 [6] [µM]	anti-toxoplasma activity, in words [4]	IC50 ([4]; read-out: T. gondi IC50, HFF infected) [µM]	HFF LD50 ([2]; MTT cytotoxicity) [µM]	IC50 ([5]; antiparasitic activity) [µM]
COc1cccc(CC(=O)NCc2ccc(C(=O)NO)cc2)c1 [Compound 362]	0.518	>8	>400	0.5	30.5 ± 3.0 µM	52.5	–	–	–	–	–	–	–	–	–
Cc1nc(-c2ccc(C(=O)Nc3ccc(C(=O)NO)cc3)cc2)cs1 [Compound 361]	1.82	1.5	25.0 ± 4.0	25	>400 µM	–	> 60	~1	> 10	–	–	–	–	–	–
O=C(NO)c1ccc(CNC(=O)c2cccc(F)c2)cc1 [Compound 345]	0.866	11.6	58.3 ± 1.2	0.3	1.7. +/− 0.5 μM	< 10	–	–	–	anti-leishmanial	1.7	anti-toxoplasma activity	5	–	–
O=C(NO)c1ccccc1 [ST3, hydroxybenzamide, reference compound]	–	–	–	–	–	–	29.3	–	> 50	–	–	–	–	>400	–
Cc1nc(-c2ccc(C(=O)NCc3ccc(C(=O)NO)cc3)cc2)cs1 [Compound 360]	0.399	4.5	22.6 ± 9.5	0.4	2.2 ± 0.5 µM	–	–	–	–	–	2.2	–	–	–	> 60
